Experiments:
human CB2 receptor = biological target: T1, human CB2 receptor (Homo sapiens, UniProt P34972); experiment: CB2 radioligand ([3H]CP55,940) competitive binding assay; conditions: for Selectivity CB2: fold difference in binding between CB1 and CB2, shown in the column of the receptor with higher affinity, 1.00 in both = about the same affinity
T1 construct: host or cells: CHO-K1 (Chinese hamster ovary) cells, stably transfected; membranes prepared in house
Protocol: Compounds of the present disclosure were tested for CB1 receptor binding affinity and for CB2 receptor binding affinity. As used herein, “binding affinity” is represented by the IC50 value, which was experimentally determined as described herein. The lower the IC50 value the higher the binding affinity. A compound of the present disclosure may be said to have “binding selectivity” if it has a higher binding affinity for one receptor compared to the other.
The membranes were prepared from CHO-K1 (Chinese hamster ovary) cells stably transfected with the human CB2 receptor (Cat. #ES-111-C; Perkin Elmer, Boston, Mass.). The cells were grown adherently and maintained in Ham's F12 medium containing 10% fetal bovine serum (FBS), penicillin, streptomycin and geneticin (G418) at 37° C. in a humid atmosphere of 5% CO2 following the manufacturer's instructions.
For membrane preparation the cells were washed with PBS and scraped off the plates in cold homogenization buffer (25 mM HEPES (pH 7.4), 2 mM EDTA) containing protease inhibitor cocktail (Sigma Cat. #P8340). The cell suspension was homogenized with a Pro-PK-01200D Polytron Homogenizer (Pro Scientific) and then centrifuged for 30 min at 120,000× g. The supernatant was discarded and the pellet was re-suspended in the homogenization buffer and stored at −80° C. until the time of use.
In this experiment, 3H radiolabeled CP55,940, i.e. [3H]CP55,940 (Perkin Elmer, Boston, Mass.), was used as a radioligand for the CB2 receptor to determine the binding affinity of compounds for the CB2 receptor (Scheme 4; above).
The competition binding experiments (single dose and dose-response) were performed by incubating 0.6 nM of [3H]CP55,940 (specific activity 101 Ci/mmol, Perkin Elmer) and different concentrations of compounds disclosed herein with membranes prepared as above from CHO-K1 cells expressing human CB2 receptor (1 μg of protein/well), 50 mM Tris-HCl (pH 7.4), 5 mM MgCl2, 1 mM CaCl2, and 2 mg/mL BSA.
For the single dose experiments, the compound stocks (usually 10 mM in DMSO) were diluted to working stocks in the binding buffer to give the final compound concentrations of 10 μM and 1 μM. For the dose-response experiments the test compounds were sequentially diluted to provide the desired concentration range for the IC50 determination. In each case the compounds were pre-incubated with the membrane for 20 min, before adding the radioligand.
After incubation with the radioligand for 60 min at 37° C., the incubation was terminated by rapid filtration of assay mixture through MultiScreen®HTS^+ 96-well filter plates (Millipore, Cat. #MSFCNXB), pre-soaked for 60 min with 50 mM Tris-HCl (pH 7.4) containing 0.33% polyethylenimine (PEI). The nonspecific binding (NSB) was determined in the presence of 10 μM unlabelled CP55,940. After drying the filter plate at 50° C. for at least 60 min, the filter-bound radioactivity was determined by scintillation spectrometry using the 1450 MicroBeta Plate Counter (Perkin Elmer, Boston, Mass.). From the dose-response experiments, the IC50 values were determined (see Table 1, CB2 IC50).

human CB1 receptor [1] = biological target: T2, human CB1 receptor (Homo sapiens, UniProt P21554); experiment: biochemical; format: binding; parameters: host or cells: CHO-K1 (Chinese hamster ovary) cells, stably transfected; membranes prepared in house; conditions: for Selectivity CB1: fold difference in binding between CB1 and CB2, shown in the column of the receptor with higher affinity, 1.00 in both = about the same affinity
T2 sequence (P21554 whole entry): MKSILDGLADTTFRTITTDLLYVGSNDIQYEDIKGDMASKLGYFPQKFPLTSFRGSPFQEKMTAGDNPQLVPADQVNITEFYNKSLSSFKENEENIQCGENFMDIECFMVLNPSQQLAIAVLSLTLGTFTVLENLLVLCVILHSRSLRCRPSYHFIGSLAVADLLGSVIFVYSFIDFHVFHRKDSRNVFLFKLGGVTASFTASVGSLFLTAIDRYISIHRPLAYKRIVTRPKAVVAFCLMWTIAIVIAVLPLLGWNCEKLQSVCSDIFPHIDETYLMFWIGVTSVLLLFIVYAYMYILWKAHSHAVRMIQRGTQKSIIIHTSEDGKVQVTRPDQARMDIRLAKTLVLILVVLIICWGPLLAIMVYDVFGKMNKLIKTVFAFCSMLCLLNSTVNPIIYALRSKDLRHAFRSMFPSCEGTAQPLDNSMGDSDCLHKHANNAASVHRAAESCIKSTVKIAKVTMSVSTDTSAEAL

human CB1 receptor [2] = biological target: T2, human CB1 receptor; experiment: PathHunter β-Arrestin functional assay, CB1 receptor, agonist mode; format: cell-based
Excerpt: (§1) In the PathHunter® β-Arrestin system from DiscoveRx (Eurofins, Fremont, Calif.), a small peptide, the ProLink™ (PK), is fused to the intracellular sequence of a GPCR target, and a complementing peptide, the enzyme acceptor (EA) fragment, is fused to β-arrestin. After binding to its specific ligand, the GPCR target recruits β-arrestin, forcing the complementation of the two β-galactosidase enzyme fragments (EA and PK) to produce a functional β-galactosidase enzyme. The enzyme activity, and thus the amount of ligand bound to the GPCR, is detected with a single addition of a reagent cocktail to lyse the cells and produce a chemiluminescent signal before being analyzed using a traditional plate reader.
(§2) PathHunter® CHO-K1 CNR1 β-Arrestin cells (DiscoverRx, cat. Number 93-0959C2) stably expressing CB1 receptor (CB1R) were grown in Ham's F12 medium containing 10% fetal bovine serum (FBS), 1% penicillin/streptomycin, 300 μg/mL Hygromycin B and 800 μg/mL geneticin (G418) and maintained in 37° C. incubators at 5% CO2. […]
(§3) The incubation was terminated by adding the detection reagent (19 parts of 1% CHAPS, 5 parts Emerald-II and 1 part Galacton-Star), equivalent to 50% of the assay volume to each wells. Plates were incubated for 1 hour in the dark at room temperature, followed by chemiluminescence detection using a microplate reader.
(§4) Data were analysed by generating nonlinear regression curves. […]

human CB1 receptor [3] = biological target: T2, human CB1 receptor; experiment: PathHunter β-Arrestin functional assay, CB1 receptor, antagonist mode; format: cell-based
Excerpt: as §1, §2, §3, §4

T1 sequence (P34972 whole entry): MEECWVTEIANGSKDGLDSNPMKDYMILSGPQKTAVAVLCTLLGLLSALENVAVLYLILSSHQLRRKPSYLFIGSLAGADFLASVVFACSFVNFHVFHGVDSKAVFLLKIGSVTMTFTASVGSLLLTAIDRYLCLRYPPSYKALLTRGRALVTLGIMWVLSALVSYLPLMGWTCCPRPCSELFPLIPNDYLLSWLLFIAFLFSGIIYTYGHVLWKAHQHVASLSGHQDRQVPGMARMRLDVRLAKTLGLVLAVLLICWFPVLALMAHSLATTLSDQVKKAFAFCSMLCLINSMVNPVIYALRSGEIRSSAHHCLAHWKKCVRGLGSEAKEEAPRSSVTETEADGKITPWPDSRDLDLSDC

Structure (SMILES): CCCCCc1cc2c(c3c1C(=O)OC(c1ccccc1)O3)[C@@H]1C=C(C)CC[C@H]1C(C)(C)O2 (stereo partly shown) [Compound 3b, 8,8,11-trimethyl-5-pentyl-2-phenyl-8a,9,10,12a-tetrahydro-4H,8H-benzo[c][1,3]dioxino[4,5-f]chromen-4-one]
- IC50 (human CB2 receptor): 1000 to 4990 nM
- IC50 (human CB1 receptor [1]): 1000 to 4990 nM
- Selectivity CB1 (human CB1 receptor [1]): 1.62 fold

Structure (SMILES): CCCCCc1cc2c(c3c1C(=O)OC(CC(C)=O)(c1ccccc1)O3)[C@@H]1C=C(C)CC[C@H]1C(C)(C)O2 (stereo partly shown) [Compound 12b, 8,8,11-trimethyl-2-(2-oxopropyl)-5-pentyl-2-phenyl-8a,9,10,12a-tetrahydro-4H,8H-benzo[c][1,3]dioxino[4,5-f]chromen-4-one]
- IC50 (human CB2 receptor): > 5000 nM
- Selectivity CB2 (human CB2 receptor): 1.33 fold
- IC50 (human CB1 receptor [1]): > 5000 nM

Structure (SMILES): CCCCCc1cc2c(c3c1C(=O)OCO3)[C@@H]1C=C(C)CC[C@H]1C(C)(C)O2 [Compound 1b, 8,8,11-trimethyl-5-pentyl-8a,9,10,12a-tetrahydro-4H,8H-benzo[c][1,3]dioxino[4,5-f]chromen-4-one]
- IC50 (human CB2 receptor): < 500 nM
- Selectivity CB2 (human CB2 receptor): 1.80 fold
- IC50 (human CB1 receptor [1]): 500 to 990 nM

Structure (SMILES): CCCCCc1cc2c(c3c1C(=O)OC(C)(C)O3)[C@@H]1C=C(C)CC[C@H]1C(C)(C)O2 [Compound 2b, 2,2,8,8,11-pentamethyl-5-pentyl-8a,9,10,12a-tetrahydro-4H,8H-benzo[c][1,3]dioxino[4,5-f]chromen-4-one]
- IC50 (human CB2 receptor): < 500 nM
- Selectivity CB2 (human CB2 receptor): 1.03 fold
- IC50 (human CB1 receptor [1]): < 500 nM

Structure (SMILES): CCCCCc1cc2c(c3c1C(=O)OC(CC(C)=O)(c1ccc(OC)cc1)O3)[C@@H]1C=C(C)CC[C@H]1C(C)(C)O2 (stereo partly shown) [Compound 21b, 2-(4-methoxyphenyl)-8,8,11-trimethyl-2-(2-oxopropyl)-5-pentyl-8a,9,10,12a-tetrahydro-4H,8H-benzo[c][1,3]dioxino[4,5-f]chromen-4-one]
- IC50 (human CB2 receptor): 1000 to 4990 nM
- Selectivity CB2 (human CB2 receptor): 1.00 fold
- IC50 (human CB1 receptor [1]): 1000 to 4990 nM
- Selectivity CB1 (human CB1 receptor [1]): 1.00 fold

Structure (SMILES): CCCCCc1cc2c(c3c1C(=O)OC(CC(C)=O)O3)[C@@H]1C=C(C)CC[C@H]1C(C)(C)O2 (stereo partly shown) [Compound 14b, 8,8,11-trimethyl-2-(2-oxopropyl)-5-pentyl-8a,9,10,12a-tetrahydro-4H,8H-benzo[c][1,3]dioxino[4,5-f]chromen-4-one]
- IC50 (human CB2 receptor): 1000 to 4990 nM
- IC50 (human CB1 receptor [1]): 1000 to 4990 nM
- Selectivity CB1 (human CB1 receptor [1]): 2.69 fold

Structure (SMILES): CCCCCc1cc2c(c3c1C(=O)OC(CC(C)=O)(c1ccc(F)cc1)O3)[C@@H]1C=C(C)CC[C@H]1C(C)(C)O2 (stereo partly shown) [Compound 13b, 2-(4-fluorophenyl)-8,8,11-trimethyl-2-(2-oxopropyl)-5-pentyl-8a,9,10,12a-tetrahydro-4H,8H-benzo[c][1,3]dioxino[4,5-f]chromen-4-one]
- IC50 (human CB2 receptor): 1000 to 4990 nM
- Selectivity CB2 (human CB2 receptor): 1.00 fold
- IC50 (human CB1 receptor [1]): 1000 to 4990 nM
- Selectivity CB1 (human CB1 receptor [1]): 1.00 fold

Structure (SMILES): CCCCCc1cc2c(c3c1C(=O)OC(CC(C)=O)(c1ccc(Cl)cc1)O3)[C@@H]1C=C(C)CC[C@H]1C(C)(C)O2 (stereo partly shown) [Compound 23b, 2-(4-chlorophenyl)-8,8,11-trimethyl-2-(2-oxopropyl)-5-pentyl-8a,9,10,12a-tetrahydro-4H,8H-benzo[c][1,3]dioxino[4,5-f]chromen-4-one]
- IC50 (human CB2 receptor): 1000 to 4990 nM
- Selectivity CB2 (human CB2 receptor): 1.00 fold
- IC50 (human CB1 receptor [1]): 1000 to 4990 nM
- Selectivity CB1 (human CB1 receptor [1]): 1.00 fold

Structure (SMILES): CCCCCc1cc2c(c3c1C(=O)OC(C)O3)[C@@H]1C=C(C)CC[C@H]1C(C)(C)O2 (stereo partly shown) [Compound 16b, 2,8,8,11-tetramethyl-5-pentyl-8a,9,10,12a-tetrahydro-4H,8H-benzo[c][1,3]dioxino[4,5-f]chromen-4-one]
- IC50 (human CB2 receptor): < 500 nM
- EC50 (human CB1 receptor [2]): ~252 nM
- relative efficacy in comparison to CP55,940 (human CB1 receptor [2]; agonist mode, normalized to CP55,940): about 7%
- IC50 (human CB1 receptor [3]): ~3000 nM
- relative inhibition in comparison to rimonabant (human CB1 receptor [3]; antagonist mode, normalized to rimonabant): about 35%
- IC50 (human CB1 receptor [1]): < 500 nM
- Selectivity CB1 (human CB1 receptor [1]): 1.50 fold

Structure (SMILES): CCCCCc1cc2c(c3c1C(=O)OC(CC)O3)[C@@H]1C=C(C)CC[C@H]1C(C)(C)O2 (stereo partly shown) [Compound 17b, 2-ethyl-8,8,11-trimethyl-5-pentyl-8a,9,10,12a-tetrahydro-4H,8H-benzo[c][1,3]dioxino[4,5-f]chromen-4-one]
- IC50 (human CB2 receptor): < 500 nM
- Selectivity CB2 (human CB2 receptor): 12.73 fold
- IC50 (human CB1 receptor [1]): 1000 to 4990 nM

Reference: patent US20220259221A1, “CANNABINOID DERIVATIVES” (CANOPY GROWTH CORPORATION, priority 2019, published 2022)
